Results reported in patent US10294202B2, “Pyrrolidinones as herbicides” (FMC Corporation, priority 2013, dated 2019).

Key:
[1] = system: wheat; experiment: Test A pre-/postemergence herbicide test; format: in vivo, Triticum aestivum; details: Postemergence
In short: (§1)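 Both application timings used compounds in a non-phytotoxic solvent plus surfactant. Pre-emergence: soil sprayed directly after seeding into loam/sand. Post-emergence: foliage of 2–10 cm seedlings (1–2 leaves) sprayed. Injury rated ~10 days later, 0–100.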

[2] = system: galium; experiment: Test A postemergence herbicide test; format: in vivo, Galium aparine
In short: (§2)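 Plants at the one- to two-leaf stage, 2–10 cm tall, grown in loam/sand pots, received postemergence sprays of the test chemicals. After about 10 days in the greenhouse, injury was scored visually against untreated controls on a 0–100 scale (0 none, 100 complete control).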

[3] = system: barnyardgrass; experiment: Test B flooded paddy test; format: in vivo, Echinochloa crus-galli; details: 500 g ai/ha, Flood; scale of 0 to 100 where 0 is no effect and 100 is complete control
In short: (§3)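 Plants grown to 2-leaf stage; pots flooded 3 cm above soil and compound applied directly into paddy water, depth held throughout. Visual rating against untreated controls after 13 to 15 days in greenhouse, 0 (no effect) to 100 (complete control).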

[4] = system: ducksalad; experiment: Test B flooded paddy test; format: in vivo, Heteranthera limosa; details: 500 g ai/ha, Flood; scale of 0 to 100 where 0 is no effect and 100 is complete control
In short: as §3

[5] = system: barnyardgrass; experiment: Test A pre-/postemergence herbicide test; format: in vivo, Echinochloa crus-galli
In short: as §1

[6] = system: giant foxtail; experiment: Test A pre-/postemergence herbicide test; format: in vivo, Setaria faberii
In short: as §1

[7] = system: rice; experiment: Test B flooded paddy test; format: in vivo, Oryza sativa; details: 500 g ai/ha, Flood; scale of 0 to 100 where 0 is no effect and 100 is complete control
In short: as §3

[8] = system: corn; experiment: Test A pre-/postemergence herbicide test; format: in vivo, Zea mays; details: Postemergence
In short: as §1

[9] = system: kochia; experiment: Test A pre-/postemergence herbicide test; format: in vivo, Kochia scoparia
In short: as §1

[10] = system: pigweed; experiment: Test A pre-/postemergence herbicide test; format: in vivo, Amaranthus retroflexus
In short: as §1

[11] = system: blackgrass; experiment: Test A postemergence herbicide test; format: in vivo, Alopecurus myosuroides
In short: as §2

[12] = system: ryegrass, Italian; experiment: Test A pre-/postemergence herbicide test; format: in vivo, Lolium multiflorum
In short: as §1

[13] = system: ragweed; experiment: Test A pre-/postemergence herbicide test; format: in vivo, Ambrosia elatior
In short: as §1

[14] = system: sedge, umbrella; experiment: Test B flooded paddy test; format: in vivo, Cyperus difformis; details: 500 g ai/ha, Flood; scale of 0 to 100 where 0 is no effect and 100 is complete control
In short: as §3

[15] = 125 g ai/ha, visual rating on 0 to 100 scale (0 no effect, 100 complete control), approx. 10 days
[16] = 500 g ai/ha, 0 to 100 scale (0 no effect, 100 complete control)
[17] = Postemergence, 125 g ai/ha, visual rating on 0 to 100 scale (0 no effect, 100 complete control), approx. 10 days
[18] = Postemergence, 500 g ai/ha, 0 to 100 scale (0 no effect, 100 complete control)
[19] = Preemergence, 125 g ai/ha, 0 to 100 scale where 0 is no effect and 100 is complete control
[20] = Preemergence, 500 g ai/ha, visual rating on 0 to 100 scale (0 no effect, 100 complete control)

Row | SMILES | Plant response rating, Wheat [1, 15] | Plant response rating, Galium [2, 15] | Plant response rating, Barnyardgrass [3] | Plant response rating, Ducksalad [4] | Plant response rating, Barnyardgrass [5, 17] | Plant response rating, Barnyardgrass [5, 18] | Plant response rating, Barnyardgrass [5, 19] | Barnyardgrass plant response rating [5, 20] | Plant response rating, Foxtail, Giant [6, 17] | Plant response rating, Foxtail, Giant [6, 18] | Plant response rating, Foxtail, Giant [6, 19] | Foxtail, Giant plant response rating [6, 20] | Plant response rating, Rice [7] | Plant response rating, Corn [8, 15] | Plant response rating, Corn [8, 16] | Plant response rating, Kochia [9, 17] | Plant response rating, Kochia [9, 19] | Kochia plant response rating [9, 20] | Plant response rating, Pigweed [10, 17] | Plant response rating, Pigweed [10, 19] | other results
1 | CCN1CC(c2ccc(C(F)(F)F)cc2)C(C(=O)Nc2cccc(F)c2F)C1=O (stereo not drawn) [Compound 336] | 0 | 0 | 50 | 60 | 30 | 60 | 50 | 60 | 70 | 70 | 80 | 90 | 0 | 0 | 0 | 0 | 0 | 60 | 0 | 0 | Plant response rating, Wheat [1, 16]: 0; Plant response rating, Galium [2, 16]: 0; Plant response rating, Kochia [9, 18]: 0; Plant response rating, Pigweed [10, 18]: 0; Pigweed plant response rating [10, 20]: 20; Plant response rating, Blackgrass [11, 15]: 0; Plant response rating, Blackgrass [11, 16]: 0; Plant response rating, Ryegrass, Italian [12, 17]: 0; Plant response rating, Ryegrass, Italian [12, 18]: 0; Plant response rating, Ryegrass, Italian [12, 19]: 0; Ryegrass, Italian plant response rating [12, 20]: 20; Plant response rating, Ragweed [13, 17]: 0; Plant response rating, Ragweed [13, 18]: 0; Plant response rating, Ragweed [13, 19]: 0; Ragweed plant response rating [13, 20]: 0; Plant response rating, Sedge, Umbrella [14]: 0
2 | O=C1NCC(c2cccc(-n3cccn3)c2)C1C(=O)Nc1ccccc1C(F)(F)F (stereo not drawn) [Compound 338] | 0 | 0 | 0 | 0 | 0 | 30 | 0 | 20 | 20 | 60 | 30 | 80 | 0 | 0 | 0 | 0 | 0 | 20 | 0 | 0 | Pigweed plant response rating [10, 20]: 0; Plant response rating, Blackgrass [11, 15]: 0; Plant response rating, Blackgrass [11, 16]: 0; Plant response rating, Ryegrass, Italian [12, 17]: 0; Plant response rating, Ryegrass, Italian [12, 19]: 0; Ryegrass, Italian plant response rating [12, 20]: 0; Plant response rating, Ragweed [13, 17]: 0; Plant response rating, Ragweed [13, 19]: 0; Ragweed plant response rating [13, 20]: 0; Plant response rating, Sedge, Umbrella [14]: 0
3 | O=C1NCC(c2ccc(Br)c(Br)c2)C1C(=O)Nc1ccccc1F (stereo not drawn) [Compound 339] | 0 | 0 | 40 | 65 | 40 | 60 | 60 | 80 | 60 | 60 | 70 | 80 | 0 | 0 | 0 | 0 | 0 | 0 | 0 | 0 | Pigweed plant response rating [10, 20]: 0; Plant response rating, Blackgrass [11, 15]: 0; Plant response rating, Blackgrass [11, 16]: 0; Plant response rating, Ryegrass, Italian [12, 17]: 0; Plant response rating, Ryegrass, Italian [12, 19]: 0; Ryegrass, Italian plant response rating [12, 20]: 20; Plant response rating, Ragweed [13, 17]: 0; Plant response rating, Ragweed [13, 19]: 0; Ragweed plant response rating [13, 20]: 0; Plant response rating, Sedge, Umbrella [14]: 0
4 | O=C1NCC(c2ccc(Br)c(Br)c2)C1C(=O)Nc1ccc(F)cc1F (stereo not drawn) [Compound 340] | 0 | 0 | 0 | 50 | 30 | 50 | 60 | 80 | 30 | 90 | 80 | 90 | 0 | 0 | 0 | 0 | 0 | 0 | 0 | 0 | Pigweed plant response rating [10, 20]: 0; Plant response rating, Blackgrass [11, 15]: 0; Plant response rating, Blackgrass [11, 16]: 20; Plant response rating, Ryegrass, Italian [12, 17]: 0; Plant response rating, Ryegrass, Italian [12, 19]: 0; Ryegrass, Italian plant response rating [12, 20]: 20; Plant response rating, Ragweed [13, 17]: 0; Plant response rating, Ragweed [13, 19]: 0; Ragweed plant response rating [13, 20]: 0; Plant response rating, Sedge, Umbrella [14]: 0
